Test results reported in patent US9006426B2, “Squaric acid derivatives as inhibitors of the nicotinamide” (Topotarget A/S, priority 2008, dated 2015).

System: A2780 cells
Test: In vitro cell proliferation assay (SRB assay)
Assay type: cell-based
Settings: Homo sapiens, 72 h incubation, SRB staining
Procedure: In Vitro Cell Proliferation Assay (SRB Assay)
A2780 cells were seeded in 96-well plates at 2000 cells/well in 100 μL of culture medium, 4 wells were left empty for media only controls.
After 24 h the compound titrations were performed, in a separate dilution plate, by serially diluting the compounds of general formula (I) in culture medium. A 100 μL of each dilution was added to the plated cells, this was done in quadruplicate, and controls (e.g. DMSO and blanks) were included. The plates were incubated for 72 h at 37° C. in a CO2 incubator. 50 μL cold 50% trichloroacetic acid was then added to each well. After 1 h the supernatant was discarded and the wells were washed 5 times with tap water and dried at room temperature. […] Bound stain was subsequently solubilized by addition of 200 μL 10 mM Tris pH 10.5 to each well, and the plates were shaken for at least 30 minutes, and the absorbance read on an automated plate reader at 515 nm. Using the nine absorbance measurements [time zero, (Tz), control growth, (C), and test growth in the presence of drug at the seven concentration levels (Ti)], the percentage growth is calculated at each of the drug concentrations levels after averaging the quadruplet wells. Percentage growth inhibition is calculated as: [(Ti−Tz)/(C−Tz)]×100 for concentrations for which Ti>/=Tz [(Ti−Tz)/Tz]×100 for concentrations for which Ti<Tz. […]

IC50: 40 nM
Structure (SMILES): O=c1c(NCCCCCCOc2ccc(Cl)cc2)c(Nc2ccncc2)c1=O [SQ-7B, 3-(6-(4-chlorophenoxy)hexylamino)-4-(pyridine-4-ylamino)-cyclobut-3-ene-1,2-dione]
